Entries after “also recorded” stand apart in the source; their conditions may differ. Where two headings read alike, the source gives them in different places. Where no end group is shown, it is not given here.
Tests used:
human RXFP3 [1] = molecular target: T1, human RXFP3 (Homo sapiens, UniProt Q9NSD7); assay: RXFP3 competition binding assay with Eu-DTPA-R3/I5; details: for binding affinity for RXFP3 (in words): RXFP3-expressing cells, Eu-labelled H3/INSL5 chimeric polypeptide
T1 construct: expressed in transfected cells
T1 sequence (Q9NSD7 1-469): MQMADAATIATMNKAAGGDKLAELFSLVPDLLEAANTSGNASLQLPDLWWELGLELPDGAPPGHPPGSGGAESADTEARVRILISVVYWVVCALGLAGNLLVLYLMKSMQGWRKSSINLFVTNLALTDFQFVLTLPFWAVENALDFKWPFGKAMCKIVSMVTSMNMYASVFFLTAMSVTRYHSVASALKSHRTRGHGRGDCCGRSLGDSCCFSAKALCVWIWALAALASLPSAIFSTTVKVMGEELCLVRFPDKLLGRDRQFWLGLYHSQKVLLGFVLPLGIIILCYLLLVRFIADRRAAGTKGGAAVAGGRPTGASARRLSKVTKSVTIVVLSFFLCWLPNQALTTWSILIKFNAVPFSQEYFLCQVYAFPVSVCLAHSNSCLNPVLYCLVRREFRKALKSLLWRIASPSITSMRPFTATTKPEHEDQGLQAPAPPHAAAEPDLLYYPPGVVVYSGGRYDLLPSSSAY

human RXFP3 [2] = molecular target: T1, human RXFP3; assay: cAMP activity assay (pCRE β-galactosidase reporter, forskolin-induced) in CHO cells transfected with RXFP3; format: cell-based; details: for agonist activity at RXFP3 (inhibition of cAMP activity): RXFP3-expressing cells, 5 μM forskolin; for antagonist activity at RXFP3 (rescue of cAMP levels): in the presence of 10 nM H3 relaxin
Description: For activity determination, a cAMP activity assay was used. CHO cells were cultured in a 1:1 mixture of Dulbecco's modified Eagle's medium and HAMNS-F12 medium supplemented with 10% fetal bovine serum, 1% L-glutamine and 1% penicillin/strepicillin and cultivated in a humidified chamber with 5% CO2 at 37.8° C. 20 000 cells per well were seeded into a pre-coated poly-L lysine 96-wells plate. Cells were incubated over night before being transfected with the mammalian expression vector pcDNA3.1(+)zeo (UMR cDAN Resource Center) carrying human RXFP3 together with a pCRE β-galactosidase reporter plasmid using TransIT-CHO, OptiMEM and CHO-MOJO reagents. Cells were then incubated over night in a humidified chamber with 5% CO2 at 37.8° C. before cAMP assays were performed. […] In brief, the cells were incubated with the peptide for 6 h in a humidified chamber before the media was aspirated off and the cells were frozen at −80° C. To develop the results, the cells were lysed by addition of 25 μl buffer A (5 ml 10 mM sodium phosphate buffer, pH 8.0, 1 ml 0.2 mM MgSO4 and 50 μl 0.01 mM MnCl2 in 44 ml H2O) to each well and incubated on a shaker for 10 min at room temperature before addition of 100 μl Buffer B (5 ml 100 mM sodium phosphate buffer, pH 8.0, 1 ml 2 mM MgSO4, 50 μl 0.1 mM MnCl2, 2.5 ml 0.5% Triton X-100 and 0.16 ml 40 mM β-mercaptoethanol in 41.3 ml H2O) followed by a 10 min incubation. The substrate, chlorophenol red-β-D-galactopyranoside (CPRG), was then added to each well and the reaction was left at room temperature until a absorbance of <1 AU at 570 nm was reached.

RXFP4 = molecular target: T2, RXFP4 (Homo sapiens, UniProt Q8TDU9); assay: cAMP activity assay in RXFP4-expressing cells; format: cell-based
T2 construct: expressed in transfected cells; host or cells: RXFP4-expressing cells

human RXFP1 = molecular target: T3, human RXFP1 (Homo sapiens, UniProt Q9HBX9); assay: RXFP1 competition binding assay with Eu-DTPA-H2 relaxin; details: HEK-293T cells transfected with RXFP1, Eu-DTPA-H2 relaxin
T3 construct: expressed in transfected cells; host or cells: HEK-293T
T3 sequence (Q9HBX9 1-757): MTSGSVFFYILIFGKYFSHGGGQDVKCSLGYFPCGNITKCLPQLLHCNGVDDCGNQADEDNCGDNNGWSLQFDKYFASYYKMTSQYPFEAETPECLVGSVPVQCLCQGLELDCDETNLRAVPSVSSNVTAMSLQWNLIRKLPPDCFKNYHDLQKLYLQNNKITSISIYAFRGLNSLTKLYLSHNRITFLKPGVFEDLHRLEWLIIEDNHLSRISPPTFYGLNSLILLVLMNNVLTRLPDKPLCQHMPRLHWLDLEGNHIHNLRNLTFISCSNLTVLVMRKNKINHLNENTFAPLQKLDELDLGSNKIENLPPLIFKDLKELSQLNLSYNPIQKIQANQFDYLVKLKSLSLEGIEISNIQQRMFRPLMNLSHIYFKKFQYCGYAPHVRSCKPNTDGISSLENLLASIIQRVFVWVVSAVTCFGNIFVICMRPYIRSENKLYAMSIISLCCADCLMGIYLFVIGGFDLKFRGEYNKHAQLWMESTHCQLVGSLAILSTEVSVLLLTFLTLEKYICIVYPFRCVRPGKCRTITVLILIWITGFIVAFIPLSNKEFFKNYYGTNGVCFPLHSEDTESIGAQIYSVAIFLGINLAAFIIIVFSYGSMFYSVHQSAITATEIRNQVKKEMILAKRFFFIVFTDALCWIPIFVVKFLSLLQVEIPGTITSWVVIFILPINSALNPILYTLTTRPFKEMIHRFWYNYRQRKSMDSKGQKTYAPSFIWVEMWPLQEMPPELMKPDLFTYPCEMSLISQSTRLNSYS
Description: Binding assays were carried out as follows. HEK-293T cells stably transfected with human RXFP3 were plated out onto pre-coated poly-L-lysine 96-well viewplates with a density of 50 000 cells per well. Media was aspirated off and the cells were washed with PBS before different concentrations of peptide diluted in binding buffer (100 mM HEPES, pH 7.6, 5 mM KCl, 1.3 mM MgSO4, 1.5 mM NaOAc, 1 mM EDTA and 10 mM glucose) and 300 μM of Eu-DTPA-R3/15 was added to each well. The cells were incubated at room temperature for 60 min before the peptide solution was aspirated off and the cells washed with PBS. DELFIA enhancement solution was then added and the cells incubated for a further 30-60 min at room temperature, after which the fluorescence was measured using a time resolved fluorometer with excitation at 340 nm an emission at 614 nm.
Similarly, the B1-22R single chain polypeptide was tested for its ability to activate RXFP1 or antagonise the action of H2 relaxin at this receptor. To do so, binding assays were carried out essentially as described above in Example 2 except using HEK-293T cells transfected with RXFP1 and 300 μM of Eu-DTPA-H2 relaxin.

[3] = system: alcohol-preferring (iP) rats; assay: Operant alcohol self-administration in alcohol-preferring (iP) rats; format: in vivo, rat; details: 10% ethanol, FR3, 3 μg, 10 μg or 30 μg via lateral cerebral ventricle cannula, vs normal and vehicle responding
Description: Rats were trained to stably administer 10% ethanol during daily operant session (n=18 rats) and then implanted with guide cannulae aimed at the lateral cerebral ventricle. Following a 7 day recovery period, the rats were re-stabilised on alcohol self-administration under fixed-ratio 3 (FR3) conditions and the effect of B1-22R was examined.
Rats were administered 3 μg, 10 μg or 30 μg of the B1-22R antagonist. […] The effect observed was dose-dependent.

rats = format: in vivo, rat; details: 10 μg, 0 to 45 minutes post administration, vs vehicle
Description: The inventors also carried out experiments to determine if the effects may be due to disruption in locomotor skills.

[4] = HEK-293T cells stably transfected with human RXFP3, Eu-DTPA-R3/I5 tracer, n = 3, read-out: pIC50 (n = 3), binding affinities of single chain relaxin polypeptides for RXFP3 (converted)
[5] = HEK-293T cells stably transfected with human RXFP3, Eu-DTPA-R3/I5 tracer, n = 3

T2 sequence (Q8TDU9 whole entry, species assumed): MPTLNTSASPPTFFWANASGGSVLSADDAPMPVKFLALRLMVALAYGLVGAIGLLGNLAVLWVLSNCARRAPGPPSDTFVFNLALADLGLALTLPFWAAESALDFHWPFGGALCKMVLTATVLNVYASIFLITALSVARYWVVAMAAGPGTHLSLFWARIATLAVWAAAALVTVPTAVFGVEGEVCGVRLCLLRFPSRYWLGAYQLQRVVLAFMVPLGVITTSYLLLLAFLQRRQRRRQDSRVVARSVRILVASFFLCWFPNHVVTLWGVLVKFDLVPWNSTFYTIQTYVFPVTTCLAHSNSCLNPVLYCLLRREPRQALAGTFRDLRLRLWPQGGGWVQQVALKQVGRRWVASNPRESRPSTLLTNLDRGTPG

Substance	IC50 (human RXFP3 [1]; [4])	agonist activity at RXFP3 (inhibition of cAMP activity) (human RXFP3 [2])	binding affinity for RXFP3 (in words) (human RXFP3 [1])	further results
H-AAPYGVRLSGREFIRAVIFTSR-NH2 [H3 B2-22R]	87.1 nM	failed to show any agonist activity	binding affinities for RXFP3 similar to that of B1-22R	
H-RAAPYGVRLAGREFIRAVIFTAR-NH2 [H3 B1-22R C10/22A]	148 nM	failed to show any agonist activity	binding affinities for RXFP3 similar to that of B1-22R	antagonist activity at RXFP3 (rescue of cAMP levels) (human RXFP3 [2]): lowest antagonist activity
H-RAAPYGVRLSGREFIRAVIFTSGGSRW-OH [H3 B-chain C10/22S, reference compound]			significantly less efficient in binding this receptor	
H-RAAPYGVRLSGREFIRAVIFTSR-NH2 [H3 B1-22R]		no such inhibition		IC50 (human RXFP3 [1]): 17.8 nM; antagonist activity at RXFP3 (rescue of cAMP levels) (human RXFP3 [2]): rescued cAMP levels towards 100%; antagonist activity at RXFP3 (rescue of cAMP levels) (human RXFP3 [2]; listed as H1-B22R): greatest antagonist activity; agonist activity at RXFP4 (RXFP4; RXFP4-expressing cells, cAMP): no agonist activity; antagonist activity at RXFP4 (RXFP4; block of INSL5 or H3 relaxin stimulated RXFP4 activation): fails to show any observable antagonist activity; affinity for the RXFP1 receptor (human RXFP1): very poor affinity; ethanol lever presses [3]: significant decrease in ethanol lever presses; also recorded: dose-dependent; locomotor skills (floor plane moves or floor plane distance) (rats): No significant difference
H-RAAPYGVRLSGREFIRAVIFTSR-OH [H3 B1-22R Acid]	347 nM	failed to show any agonist activity	binding affinities for RXFP3 similar to that of B1-22R	
RAAPYGVRLSGREFIRAVIFTS [H3 B1-22]			significantly less efficient in binding this receptor	pIC50 (n = 3), binding affinities of single chain relaxin polypeptides for RXFP3 (human RXFP3 [1]; [5]): No activity

Now from value to substance, other results behind:

IC50 (human RXFP3 [1]; [4])	agonist activity at RXFP3 (inhibition of cAMP activity) (human RXFP3 [2])	Substance	binding affinity for RXFP3 (in words) (human RXFP3 [1])	further results
195 nM	failed to show any agonist activity	H-APYGVRLSGREFIRAVIFTSR-NH2 [H3 B3-22R]	binding affinities for RXFP3 similar to that of B1-22R	
468 nM	failed to show any agonist activity	H-GVRLSGREFIRAVIFTSR-NH2 [H3 B6-22R]	binding affinities for RXFP3 similar to that of B1-22R	
219 nM	failed to show any agonist activity	H-PYGVRLSGREFIRAVIFTSR-NH2 [H3 B4-22R]	binding affinities for RXFP3 similar to that of B1-22R	
427 nM	failed to show any agonist activity	H-YGVRLSGREFIRAVIFTSR-NH2 [H3 B5-22R]	binding affinities for RXFP3 similar to that of B1-22R	
2510 nM		RAAPYGVRLSGREFIRAVIFTSGGSRW-OH [H3 B-chain C10/22S, reference compound]		
	failed to show any agonist activity	VRLSGREFIRAVIFTSR [H3 B7-22R]	failed to bind RXFP3 at any detectable level	pIC50 (n = 3), binding affinities of single chain relaxin polypeptides for RXFP3 (human RXFP3 [1]; [5]): No activity

From patent US9359422B2, “Single chain relaxin polypeptides” (The University of Queensland, priority 2010, dated 2016)
